Like-named read-outs stand apart in the source and are kept apart here.

Holding throughout (assay type): biochemical
The target of one experiment is METTL3/METTL14 (Homo sapiens, UniProt Q86U44). As to the kind of experiment: METTL3-14 standard enzyme assay (3H-SAM flashplate scintillation). Conditions: METTL3/METTL14 2.5 nM, RNA 100 nM, 3H-SAM 100 nM, 30 min. As for the experimental part: METTL3-14 Standard Enzyme Assay
(§1) Assays were performed in a 25 μl-volume in 384-well V-bottom polypropylene microplates (Greiner Bio-One, cat. No. 781280) at ambient temperature. Optimized 1× assay buffer was 20 mM HEPES pH 7.5, 50 mM KCl, 250 μM MgCl2, 1 mM DTT, 0.01% Tween, 0.01% BSG, 0.004 U/μl RNAseOUT (cat. No. 10777019, ThermoFisher Scientific, Waltham, Mass.). For compound screening METTL3/METTL14 (final concentration, f.c.=2.5 nM) was added using a Multidrop Combi (ThermoFisher Scientific, Waltham, Mass.) and preincubated for 5 min. Reactions were started by adding 3′ biotinylated RNA (UCUGGACUAAA-biotin) (f.c.=100 nM) and 3H-SAM (f.c.=100 nM) substrates. Reactions proceeded for 30 minutes and were quenched with excess non-radioactive SAM (f.c.=15 μM). The reactions were then transferred to streptavidin-coated flashplates and incubated for 2 hours at 25° C. Following two washing cycles with 0.1% Tween-20, the plates were sealed and read on a TopCount (PerkinElmer, Waltham, Mass.) plate-based scintillation counter. For determination of kinetic parameters, reaction times were optimized so that measurements were taken during the initial velocity phase of the reaction.

In another experiment the target is PRMT5-MEP50 (Homo sapiens, UniProt O14744). As to the kind of experiment: PRMT5 assay (3H-SAM flashplate scintillation). Conditions: PRMT5-MEP50 2.5 nM, histone H4 peptide 100 nM, 3H-SAM 250 nM, 60 min. The procedure:
Assays were performed in a 25 μl-volume in 384-well V-bottom polypropylene microplates (Greiner Bio-One, cat. No. 781280) at ambient temperature. Optimized 1× assay buffer was 20 mM Tris-HCl pH 8.0, 1 mM DTT, […]. For compound screening PRMT5-MEP50 (final concentration, f.c.=2.5 nM) was added using a Multidrop Combi (ThermoFisher Scientific, Waltham, Mass.) and preincubated for 5 min. Reactions were started by adding 3′ biotinylated histone H4 peptide acetylated on serine 1 (Ac-[…]-Biotin) (f.c.=100 nM) and 3H-SAM (f.c.=250 nM) substrates. Reactions proceeded for 60 minutes and were quenched with excess non-radioactive SAM (f.c.=15 μM). The reactions were then transferred to streptavidin-coated flashplates and incubated for 2 hours at 25° C. Following two washing cycles with 0.1% Tween-20, the plates were sealed and read on a TopCount (PerkinElmer, Waltham, Mass.) plate-based scintillation counter. For determination of kinetic parameters, reaction times were optimized so that measurements were taken during the initial velocity phase of the reaction.

Another experiment has as its target METTL1/WDR4 (Homo sapiens, UniProt Q9UBP6). As to the kind of experiment: METTL1 assay (3H-SAM flashplate scintillation). As for the experimental part: as §1, with “METTL1/WDR4” for “METTL3/METTL14”, “f.c.=6.25” for “f.c.=2.5”, “([…]-biotin) (f.c.=25” for “(UCUGGACUAAA-biotin) (f.c.=100”, “(f.c.=60” for “(f.c.=100”, “20” for “30”
The mark [1] stands for this setting: METTL1/WDR4 6.25 nM, RNA 25 nM, 3H-SAM 60 nM, 20 min, read-out: METTL1 IC50.

Sequence of METTL1/WDR4 (Q9UBP6 whole entry, species assumed): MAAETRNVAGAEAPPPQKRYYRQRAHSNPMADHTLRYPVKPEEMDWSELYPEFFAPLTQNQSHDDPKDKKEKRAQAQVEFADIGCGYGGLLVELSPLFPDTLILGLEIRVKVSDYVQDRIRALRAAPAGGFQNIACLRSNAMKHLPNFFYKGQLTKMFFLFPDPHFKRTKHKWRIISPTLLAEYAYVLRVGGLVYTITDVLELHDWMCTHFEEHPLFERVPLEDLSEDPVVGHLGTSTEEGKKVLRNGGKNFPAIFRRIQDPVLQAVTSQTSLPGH
Sequence of METTL1/WDR4 (P57081 whole entry partner, species assumed): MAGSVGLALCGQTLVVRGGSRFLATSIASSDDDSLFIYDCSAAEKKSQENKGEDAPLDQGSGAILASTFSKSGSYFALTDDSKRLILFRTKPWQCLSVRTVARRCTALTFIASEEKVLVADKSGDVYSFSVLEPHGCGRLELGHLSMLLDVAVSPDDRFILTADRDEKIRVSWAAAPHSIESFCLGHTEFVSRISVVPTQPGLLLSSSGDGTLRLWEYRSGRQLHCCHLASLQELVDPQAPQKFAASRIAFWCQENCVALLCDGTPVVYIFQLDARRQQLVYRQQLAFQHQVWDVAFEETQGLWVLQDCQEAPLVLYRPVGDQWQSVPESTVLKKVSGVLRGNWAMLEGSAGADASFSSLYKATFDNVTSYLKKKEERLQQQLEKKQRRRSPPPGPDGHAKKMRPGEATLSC
Sequence of PRMT5-MEP50 (O14744 whole entry): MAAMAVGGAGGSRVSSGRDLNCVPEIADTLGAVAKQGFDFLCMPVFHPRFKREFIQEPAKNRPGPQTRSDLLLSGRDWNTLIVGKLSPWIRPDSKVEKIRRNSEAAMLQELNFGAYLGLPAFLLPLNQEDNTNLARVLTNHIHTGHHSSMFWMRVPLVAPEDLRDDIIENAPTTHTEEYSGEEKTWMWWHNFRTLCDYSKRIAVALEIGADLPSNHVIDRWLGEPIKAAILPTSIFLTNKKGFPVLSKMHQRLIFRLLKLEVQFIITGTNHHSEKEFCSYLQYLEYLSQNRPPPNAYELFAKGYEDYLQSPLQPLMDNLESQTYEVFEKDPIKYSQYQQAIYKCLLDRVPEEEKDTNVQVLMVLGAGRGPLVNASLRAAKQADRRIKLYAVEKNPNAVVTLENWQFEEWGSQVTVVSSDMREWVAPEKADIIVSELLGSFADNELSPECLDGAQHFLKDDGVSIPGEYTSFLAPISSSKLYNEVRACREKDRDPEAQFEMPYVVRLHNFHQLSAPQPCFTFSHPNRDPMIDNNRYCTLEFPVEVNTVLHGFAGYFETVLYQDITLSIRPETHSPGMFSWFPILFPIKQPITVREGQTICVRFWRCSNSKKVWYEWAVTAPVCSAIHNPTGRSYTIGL
Sequence of PRMT5-MEP50 (Q9BQA1 whole entry partner): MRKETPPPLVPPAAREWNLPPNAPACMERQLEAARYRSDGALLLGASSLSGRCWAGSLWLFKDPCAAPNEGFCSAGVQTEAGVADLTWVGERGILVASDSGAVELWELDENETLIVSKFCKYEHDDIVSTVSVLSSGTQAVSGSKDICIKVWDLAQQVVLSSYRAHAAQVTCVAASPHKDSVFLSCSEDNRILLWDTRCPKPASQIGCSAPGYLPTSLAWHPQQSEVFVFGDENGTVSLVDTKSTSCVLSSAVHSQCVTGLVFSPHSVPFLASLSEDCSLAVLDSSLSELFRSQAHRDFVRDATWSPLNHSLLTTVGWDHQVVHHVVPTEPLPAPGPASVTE
Sequence of METTL3/METTL14 (Q86U44 whole entry, species assumed): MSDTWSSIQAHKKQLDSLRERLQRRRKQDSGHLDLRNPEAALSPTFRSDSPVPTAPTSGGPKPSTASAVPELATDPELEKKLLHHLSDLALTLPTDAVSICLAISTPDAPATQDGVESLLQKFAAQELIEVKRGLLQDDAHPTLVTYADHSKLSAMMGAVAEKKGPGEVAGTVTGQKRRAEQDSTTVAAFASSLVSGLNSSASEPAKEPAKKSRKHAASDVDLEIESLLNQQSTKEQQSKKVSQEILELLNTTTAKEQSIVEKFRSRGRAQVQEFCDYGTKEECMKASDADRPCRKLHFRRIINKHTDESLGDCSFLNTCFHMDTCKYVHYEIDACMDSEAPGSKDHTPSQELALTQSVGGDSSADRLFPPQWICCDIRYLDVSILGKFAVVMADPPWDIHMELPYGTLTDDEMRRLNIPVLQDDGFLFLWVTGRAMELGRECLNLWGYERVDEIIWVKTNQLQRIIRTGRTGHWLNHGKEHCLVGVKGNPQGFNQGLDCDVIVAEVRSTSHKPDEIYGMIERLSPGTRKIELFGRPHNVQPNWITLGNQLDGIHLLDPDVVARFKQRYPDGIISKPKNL
Sequence of METTL3/METTL14 (Q9HCE5 whole entry partner, species assumed): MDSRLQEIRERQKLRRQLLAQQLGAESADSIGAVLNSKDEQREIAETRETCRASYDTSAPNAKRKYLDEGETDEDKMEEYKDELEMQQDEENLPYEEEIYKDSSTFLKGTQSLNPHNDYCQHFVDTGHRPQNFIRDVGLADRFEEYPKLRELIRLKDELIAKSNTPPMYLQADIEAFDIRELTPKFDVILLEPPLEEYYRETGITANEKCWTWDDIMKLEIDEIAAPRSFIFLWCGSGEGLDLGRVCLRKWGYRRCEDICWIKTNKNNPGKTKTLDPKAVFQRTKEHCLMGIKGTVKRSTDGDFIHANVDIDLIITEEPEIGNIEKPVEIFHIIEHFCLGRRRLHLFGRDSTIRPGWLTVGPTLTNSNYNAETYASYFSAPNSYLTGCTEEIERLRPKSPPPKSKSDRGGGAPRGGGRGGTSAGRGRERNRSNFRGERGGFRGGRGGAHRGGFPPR

One may read the IC50 as the midpoint of a concentration-inhibition curve. Consider `Nc1ccc2ccc(OCc3cncc(-n4ccc5c(N)ncnc54)c3)cc2n1` [Compound I-240], for which the IC50 against METTL3/METTL14 was 0.01 to 0.1 µM; against PRMT5-MEP50 it was over 1 µM; at METTL1/WDR4 (setting [1]), over 1 µM.

As for `CN(Cc1cncc(-n2cc(-c3ccn(C)n3)c3c(N)ncnc32)c1)CC1CC1` [Compound I-100], the IC50 against METTL3/METTL14, against PRMT5-MEP50 and at METTL1/WDR4 (setting [1]) was over 1 µM each time.

Consider `CNc1ccc2ccc(OCc3cncc(-n4cc(C5CCC(F)(F)CC5)c5c(N)ncnc54)c3)cc2n1` [Compound I-3], for which the IC50 was 0.01 to 0.1 µM at METTL3/METTL14, over 1 µM against PRMT5-MEP50 and over 1 µM at METTL1/WDR4 (setting [1]).

Turning to `Nc1ncnc2c1c(C1CCCC1)cn2-c1cncc(COc2ccc3ccc(N4CCC4)nc3c2)c1` [Compound I-94], the IC50 on METTL3/METTL14 is under 0.01 µM; against PRMT5-MEP50, over 1 µM; on METTL1/WDR4 (setting [1]), over 1 µM.

On to `CCc1nc(N)c2ccn(-c3cncc(COc4ccc5ccc(NC)nc5c4)c3)c2n1` [Compound I-8], for which the IC50 is under 0.01 µM against METTL3/METTL14, over 1 µM at PRMT5-MEP50 and over 1 µM at METTL1/WDR4 (setting [1]).

As for `Nc1ncnc2c1ccn2-c1cncc(COc2ccc3c(=O)cc[nH]c3c2)c1` [Compound I-88], the IC50 against METTL3/METTL14, against PRMT5-MEP50 and on METTL1/WDR4 (setting [1]) was over 1 µM throughout.

Turning to `CNc1ccc2ccc(OCc3cc(-n4ccc5c(N)ncnc54)n[nH]3)cc2n1` [Compound I-2], the IC50 against PRMT5-MEP50 and on METTL1/WDR4 was over 1 µM throughout.

Consider `CNc1ccc2cc(F)c(OCc3cncc(-n4cc(C5CCCC5)c5c(N)ncnc54)c3)cc2n1` [Compound I-5], for which the concentration for half-maximal inhibition (IC50) at PRMT5-MEP50 and at METTL1/WDR4 (setting [1]) was over 1 µM in each case.

As to `CNc1ccc2ccc(OC(C)c3cncc(-n4ccc5c(N)ncnc54)c3)cc2n1` (stereo not drawn) [Compound I-4], the IC50 at PRMT5-MEP50 and at METTL1/WDR4 (setting [1]) was over 1 µM in each case.

For the compound `Cn1ccc(-c2cn(-c3cncc(COc4ccc5ccc(N6CCC6=O)nc5c4)c3)c3ncnc(N)c23)n1` [Compound I-188], the IC50 against METTL3/METTL14 and at PRMT5-MEP50 was over 1 µM in each case.

As to `CCc1cc(=O)c2ccc(OCc3cncc(-n4cc(C5CCCC5)c5c(N)ncnc54)c3)cc2[nH]1` [Compound I-105], the IC50 on METTL3/METTL14 is 0.1 to 1 µM; against PRMT5-MEP50, over 1 µM.

For the compound `CN(CC1CC1)C(=O)c1ccc(OCc2cncc(-n3cc(-c4ccn(C)n4)c4c(N)ncnc43)c2)cc1N` [Compound I-179], the half-inhibitory concentration (IC50) against METTL3/METTL14 and against PRMT5-MEP50 was over 1 µM throughout.

As to `Cn1ccc(-c2cn(-c3cncc(COc4ccc(-c5ncco5)c(N)c4)c3)c3ncnc(N)c23)n1` [Compound I-211], the 50% inhibitory concentration (IC50) at METTL3/METTL14 and at PRMT5-MEP50 was over 1 µM in each case.

Take `CC1COc2ccc(OCc3cncc(-n4cc(-c5ccn(C)n5)c5c(N)ncnc54)c3)cc2N1` (stereo not drawn) [Compound I-171]: the IC50 against METTL3/METTL14 and against PRMT5-MEP50 was over 1 µM throughout.

In the case of `CN(C)C(=O)c1ccc(OCc2cncc(-n3cc(-c4ccn(C)n4)c4c(N)ncnc43)c2)cc1N` [Compound I-177], the IC50 against METTL3/METTL14 and at PRMT5-MEP50 was over 1 µM in each case.

As for `Nc1ncnc2c(-c3cncc(COc4ccc5ccc(N6CCC6)nc5c4)c3)c[nH]c12` [Compound I-190], the IC50 at METTL3/METTL14 was under 0.01 µM; at PRMT5-MEP50, over 1 µM.

As for `Cn1ccc(-c2cn(-c3cncc(CNC(=O)Nc4cccc(N5CCC5)n4)c3)c3ncnc(N)c23)n1` [Compound I-225, 1-({5-[4-amino-5-(1-methyl-1H-pyrazol-3-yl)-7H-pyrrolo[2,3-d]pyrimidin-7-yl]pyridin-3-yl}methyl)-3-[6-(azetidin-1-yl)pyridin-2-yl]urea], the IC50 on METTL3/METTL14 and against PRMT5-MEP50 was over 1 µM each time.

For `CCc1ccc2ccc(OCc3cncc(-n4cc(-c5ccn(C)n5)c5c(N)ncnc54)c3)cc2n1` [Compound I-180], the IC50 against METTL3/METTL14 was 0.01 to 0.1 µM; against PRMT5-MEP50 it was over 1 µM.

`CCc1cc(N2CCC2)nc2cc(OCc3cncc(-n4cc(C5CCCO5)c5c(N)ncnc54)c3)cc(F)c12` (stereo not drawn) [Compound I-199]: the IC50 on METTL3/METTL14 and at PRMT5-MEP50 was over 1 µM in each case.

As for `Cc1cc(NCCN(C)CCCCCc2ccccc2)c2ccc(OCc3cncc(-n4ccc5c(N)ncnc54)c3)cc2n1` [Compound I-103], the IC50 is 0.01 to 0.1 µM against METTL3/METTL14 and over 1 µM against PRMT5-MEP50.

In the case of `Cc1cc(NCCN(C)CCCCc2ccccc2)c2ccc(OCc3cncc(-n4ccc5c(N)ncnc54)c3)cc2n1` [Compound I-102], the half-maximal inhibitory concentration (IC50) against METTL3/METTL14 is 0.01 to 0.1 µM; on PRMT5-MEP50, over 1 µM.

Take `Cn1ccc(-c2cn(-c3cncc(CS(=O)(=O)c4ccc5ccc(N6CCC6)nc5c4)c3)c3ncnc(N)c23)n1` [Compound I-220, 7-[5-({[2-(azetidin-1-yl)quinolin-7-yl]sulfonyl}methyl)pyridin-3-yl]-5-(1-methyl-1H-pyrazol-3-yl)-7H-pyrrolo[2,3-d]pyrimidin-4-amine]: the 50% inhibitory concentration (IC50) against METTL3/METTL14 and at PRMT5-MEP50 was over 1 µM throughout.

As for `Cn1ccc(-c2cn(-c3cncc(COc4ccc(CN5CCOCC5)c(N)c4)c3)c3ncnc(N)c23)n1` [Compound I-210], the IC50 at METTL3/METTL14 is 0.1 to 1 µM; at PRMT5-MEP50 it was over 1 µM.

As to `Cn1ccc(-c2cn(-c3cncc(COc4ccc5ccc(N6CC7(CC7)C6)nc5c4)c3)c3ncnc(N)c23)n1` [Compound I-203], the IC50 was 0.01 to 0.1 µM against METTL3/METTL14 and over 1 µM against PRMT5-MEP50.

Turning to `Cn1ccc(-c2cn(-c3cncc(COc4ccc(C(=O)N5CCNCC5)c(N)c4)c3)c3ncnc(N)c23)n1` [Compound I-176], the IC50 was 0.1 to 1 µM against METTL3/METTL14 and over 1 µM at PRMT5-MEP50.

For the compound `Cn1ccc(-c2cn(-c3cncc(COc4ccc(C(=O)N5CCOCC5)c(N)c4)c3)c3ncnc(N)c23)n1` [Compound I-178], the IC50 at METTL3/METTL14 and on PRMT5-MEP50 was over 1 µM in each case.

Regarding `Cn1ccc(-c2cn(-c3cncc(COc4ccc5ccc(N6CCOCC6=O)nc5c4)c3)c3ncnc(N)c23)n1` [Compound I-214], the IC50 against METTL3/METTL14 and on PRMT5-MEP50 was over 1 µM each time.

On to `Cn1ccc(-c2cn(-c3cncc(COc4ccc5ccc(N6CC7(COC7)C6)nc5c4)c3)c3ncnc(N)c23)n1` [Compound I-201], for which the values for the IC50 at METTL3/METTL14 and on PRMT5-MEP50 were 0.1 to 1 µM and over 1 µM, respectively.

For `Cn1ccc(-c2cn(-c3cncc(COc4cc(F)c5ccc(N6CCC6)nc5c4)c3)c3ncnc(N)c23)n1` [Compound I-208], the half-inhibitory concentration (IC50) at METTL3/METTL14 was 0.01 to 0.1 µM; against PRMT5-MEP50 it was over 1 µM.

Regarding `Cn1ccc(-c2cn(-c3cncc(COC(=O)Nc4cccc(N5CCC5)n4)c3)c3ncnc(N)c23)n1` [Compound I-224, {5-[4-amino-5-(1-methyl-1H-pyrazol-3-yl)-7H-pyrrolo[2,3-d]pyrimidin-7-yl]pyridin-3-yl}methyl N-[6-(azetidin-1-yl)pyridin-2-yl]carbamate], the IC50 on METTL3/METTL14 and at PRMT5-MEP50 was over 1 µM in each case.

For `Cn1ccc(-c2cn(-c3cncc(COc4ccc5ccc(N6CCC(F)(F)CC6)nc5c4)c3)c3ncnc(N)c23)n1` [Compound I-197], the figures for the IC50 at METTL3/METTL14 and on PRMT5-MEP50 were 0.1 to 1 µM and over 1 µM, respectively.

In the case of `Cn1ccc(-c2cn(-c3cncc(COc4ccc5cnc(N6CCC6)nc5c4)c3)c3ncnc(N)c23)n1` [Compound I-183], the IC50 at METTL3/METTL14 and against PRMT5-MEP50 was over 1 µM in each case.

Take `CN(CCS(C)(=O)=O)c1ccc2ccc(OCc3cncc(-n4cc(-c5ccn(C)n5)c5c(N)ncnc54)c3)cc2n1` [Compound I-175]: the IC50 was 0.1 to 1 µM against METTL3/METTL14 and over 1 µM against PRMT5-MEP50.
